The species named for one assay is Homo sapiens. Kind of assay: Growth inhibition of BRCA1-proficient human CML cells at 2.5 to 10 uM treated with compound on days 0 and 2 and measured on day 4 by trypan blue staining based assay. The assay is classed as functional.
The target of assay [1] is T1, DNA repair protein RAD52 homolog (Homo sapiens) (UniProt P43351).
T1 sequence (whole entry): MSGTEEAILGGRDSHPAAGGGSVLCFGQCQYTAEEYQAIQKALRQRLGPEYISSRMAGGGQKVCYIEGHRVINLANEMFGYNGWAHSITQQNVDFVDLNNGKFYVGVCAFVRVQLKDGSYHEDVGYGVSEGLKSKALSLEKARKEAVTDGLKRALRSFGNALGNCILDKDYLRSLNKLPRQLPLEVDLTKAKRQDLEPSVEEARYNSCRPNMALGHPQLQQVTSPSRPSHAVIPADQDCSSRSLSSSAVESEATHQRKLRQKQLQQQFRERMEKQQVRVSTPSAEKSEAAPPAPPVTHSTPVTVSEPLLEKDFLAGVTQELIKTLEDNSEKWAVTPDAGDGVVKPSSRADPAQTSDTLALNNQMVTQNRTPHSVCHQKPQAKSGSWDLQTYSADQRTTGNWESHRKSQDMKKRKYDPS
Kind of assay: Inhibition of RAD52 (unknown origin) expressed in BCR-ABL1-positive and BRCA1-deficient mouse 32Dcl3 cells expressing GFP-RAD52 assessed as cisplatin-induced RAD52 foci formation at 2.5 uM by AlexaFluor-594 staining based inverted fluorescence microscopy (reference value: 38.7 +/- 10%). Details: scale not given: the % may be the effect or the level left. The assay is classed as cell-based.

For assay [2], the target named is T2, DNA repair protein RAD51 homolog 1 (Mus musculus) (UniProt Q08297).
T2 sequence (whole entry): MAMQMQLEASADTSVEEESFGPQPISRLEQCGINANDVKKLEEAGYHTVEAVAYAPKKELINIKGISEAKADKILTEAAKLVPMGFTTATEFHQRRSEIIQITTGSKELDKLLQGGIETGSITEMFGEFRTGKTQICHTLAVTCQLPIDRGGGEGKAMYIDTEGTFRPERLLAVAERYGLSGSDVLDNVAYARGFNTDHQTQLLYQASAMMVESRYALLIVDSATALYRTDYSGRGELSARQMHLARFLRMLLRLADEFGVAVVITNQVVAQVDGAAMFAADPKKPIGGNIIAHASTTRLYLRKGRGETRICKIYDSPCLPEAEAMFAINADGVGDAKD
Kind of assay: Inhibition of RAD51 in BCR-ABL1-positive and BRCA1-proficient mouse 32Dcl3 cells assessed as reduction in cisplatin-induced RAD51 foci formation by AlexaFluor-594 staining based inverted fluorescence microscopy.

For assay [3], the target named is T1, DNA repair protein RAD52 homolog (Homo sapiens). Briefly: Inhibition of RAD52 in human U2OS cells co-expressing SA-GFP assessed as reduction in single strand DNA annealing at 30 uM incubated for 48 hrs by GFP+ positive cells detection based flow cytometry relative to control. The assay is classed as cell-based. On the technique in general: Flow cytometry measures light scatter and fluorescence of single cells or particles in a stream.

The target is the same in assay [4]. Briefly: Inhibition of RAD52 in human U2OS cells co-expressing SSA-GFP assessed as inhibition of repair of I-Scel-induced double stranded breaks by measuring green fluorescence at 20 uM by flow cytometry (reference value: 7.1%). In kind it is cell-based. Set-up: scale not given: the % may be the effect or the level left.
Assay [5] deals with U2OS. Kind of assay: Effect on homology dependent recombination in human U2OS cells co-expressing DR-GFP assessed as measuring green fluorescence at 5 uM flow cytometry (reference value: 7.13%). The assay is classed as functional.
Assay [6] deals with U2OS. Briefly: Effect on homology dependent recombination in human U2OS cells co-expressing DR-GFP assessed as measuring green fluorescence at 15 uM flow cytometry (reference value: 7.13%). The assay is classed as functional.
Assay [7] concerns U2OS. Briefly: Effect on homology dependent recombination in human U2OS cells co-expressing DR-GFP assessed as measuring green fluorescence at 20 uM flow cytometry (reference value: 7.13%). The assay is classed as functional.

Structures are written as SMILES. Active and inactive are the calls of the source. The rule behind the calls is not given here.

Turning to `CCN(CC)CCN=C(S)Nc1ccc2nc(N3CCN(C)CC3)cc(C)c2c1`, in the assay filed under Homo sapiens, the “growth inhibition (GI)” value was “inactive”. Besides, the Activity in assay [1] amounted to 17%; in assay [4], 4.94%; in the assay on U2OS [5], 6.98%; with U2OS [6] it was 5.7%; with U2OS [7] it was 6.2%. In addition, the inhibition entry in assay [2] is “inactive”. In assay [3], the fold change (FC) came out at 3.4.

Values taken from ChEMBL document CHEMBL4417629, “Inhibitors of RAD52 Recombination Protein and Methods Using Same” (2018).
